Reference: PMC6438679, “New lupeol esters as active substances in the treatment of skin damage” (PLoS ONE, 2019)
Structures can show the parent of a compound that is named as a salt.

Columns and labels:
[1] = test system: Reconstructed Human Epidermis (RHE) EpiDerm; assay: In vitro Skin Irritation Test on Reconstructed Human Epidermis (MTT viability); details: for increase of cell concentration in comparison to control samples: RHE model, proliferation
Protocol: A Skin Irritation Test was prepared according to SOP (Standard Operation Protocol) of In vitro Skin Irritation Test (ECVAM): Human Skin Model, EpiDerm-200, Version: 7.0, 30th Oct 2007.
Standard EpiDermFT kit (MatTek Corporation) consisted of 24 tissues. Costar Snapwell single well tissue culture plate inserts had the surface area of about 1.0 cm^2 and the diameter of about 1.2 cm. Moreover inserts were equipped with pores (size 0.4 μm diameter). Before test, all tissues were visually inspected if there are any physical imperfections. […] The culture medium was fed through a microporous membrane. The tissue contained 8–12 cell layers plus stratum corneum (basal, spinous, and granular layers) [35].
In vitro skin irritation test was prepared according to the procedure described by Kandarova et al. [35]. On the first day, tissues were topically exposed to the oil solutions of tested triterpenes. White crystals of each compound were dissolved in caprylic and capric triglyceride (Crodamol GTCC, Croda). The esters concentration in the solutions was 0.5% (m/m). Three tissues were used for each tested substance, as well as for the positive and negative control. Positive control solution consisted of 5% aq. solution of SDS (Sodium Dodecyl Sulfate, Mattek), and a negative control solution consisted of Caprylic and Capric Triglycerides (Crodamol GTCC, Croda). Chemical exposure time was 60 min, during which, for 35 min, the tissues were kept in an incubator at 37°C (chamber Heraeus, Kendro). The test substances were then removed from the tissue surface by an extensive washing procedure using DPBS (phosphate-buffered saline, pH = 7.4, Mattek). The tissue inserts were blotted and transferred to fresh medium.
After 24 hours of incubation, the medium was exchanged and the tissues were incubated for an additional 18 hours. After 42 hours of incubation time, the tissues were transferred into a yellow solution of MTT (3-(4,5-dimethylthiazol-2-yl)-2,5-diphenyltetrazolium bromide, Mattek) and incubated for a further 3 hours. The resultant purple-blue formazan salt, formed mainly by mitochondrial metabolism, was extracted after 2 hours with isopropanol, pure (Mattek). The optical density (OD570) of the extracted formazan solution was determined using a spectrophotometer (Biotek, PowerWave XS). Cells viability assay was calculated referring to the negative control tissues. A substance is classified as an irritant if the tissue viability relative to the negative control treated tissues is reduced below 50%.

SMILES | melting point | increase of cell concentration in comparison to control samples [1] | Viability [%] / SD ([1]; Epiderm, 0.5% (m/m) in caprylic and capric triglyceride, 60 min exposure, 42 h incubation, MTT, relative to negative control, n = 3)
C=C(C)C1CCC2(C)CCC3(C)C(CCC4C5(C)CCC(OC(=O)CC)C(C)(C)C5CCC43C)C12 (stereo not drawn) [Compound 3, Lupeol propionate] | 220 to 222 °C | more than 30% | –
CCCCCCCCCCCCOS(=O)(=O)[O-].[Na+] [PC, Sodium Dodecyl Sulfate, reference compound] | – | – | 28.1%
C=C(C)C1CCC2(C)CCC3(C)C(CCC4C5(C)CCC(OC(C)=O)C(C)(C)C5CCC43C)C12 (stereo not drawn) [Compound 2, Lupeol acetate] | 216 to 219 °C | more than 30% | –
C=C(C)[C@@H]1CC[C@]2(C)CC[C@]3(C)[C@H](CC[C@@H]4[C@@]5(C)CC[C@H](OC(=O)c6ccccc6OC(C)=O)C(C)(C)[C@@H]5CC[C@]43C)[C@@H]12 [Compound 6, Lupeol acetylsalicylate] | 226 to 229 °C | – | –
C=C(C)C1CCC2(C)CCC3(C)C(CCC4C5(C)CCC(OC(=O)CCC(=O)O)C(C)(C)C5CCC43C)C12 (stereo not drawn) (as salt: succinate) [Compound 5, Lupeol succinate] | 221 to 223 °C | – | –
C=C(C)[C@@H]1CC[C@]2(C)CC[C@]3(C)[C@H](CC[C@@H]4[C@@]5(C)CC[C@H](OC(=O)c6ccncc6)C(C)(C)[C@@H]5CC[C@]43C)[C@@H]12 [Compound 4, Lupeol isonicotinate] | 179 to 183 °C | more than 30% | –
